Our source for the IC50 values is patent US7790763B2, “Substituted phenyl methanone derivatives” (Hoffmann-La Roche Inc., priority 2005, dated 2010).

For the assay, the target named is T1, mGlyT-1b (Mus musculus, UniProt P28571).
T1 construct: host or cells: Flp-in-CHO cells, stably transfected
T1 sequence (P28571 1-651 isoform P28571-2): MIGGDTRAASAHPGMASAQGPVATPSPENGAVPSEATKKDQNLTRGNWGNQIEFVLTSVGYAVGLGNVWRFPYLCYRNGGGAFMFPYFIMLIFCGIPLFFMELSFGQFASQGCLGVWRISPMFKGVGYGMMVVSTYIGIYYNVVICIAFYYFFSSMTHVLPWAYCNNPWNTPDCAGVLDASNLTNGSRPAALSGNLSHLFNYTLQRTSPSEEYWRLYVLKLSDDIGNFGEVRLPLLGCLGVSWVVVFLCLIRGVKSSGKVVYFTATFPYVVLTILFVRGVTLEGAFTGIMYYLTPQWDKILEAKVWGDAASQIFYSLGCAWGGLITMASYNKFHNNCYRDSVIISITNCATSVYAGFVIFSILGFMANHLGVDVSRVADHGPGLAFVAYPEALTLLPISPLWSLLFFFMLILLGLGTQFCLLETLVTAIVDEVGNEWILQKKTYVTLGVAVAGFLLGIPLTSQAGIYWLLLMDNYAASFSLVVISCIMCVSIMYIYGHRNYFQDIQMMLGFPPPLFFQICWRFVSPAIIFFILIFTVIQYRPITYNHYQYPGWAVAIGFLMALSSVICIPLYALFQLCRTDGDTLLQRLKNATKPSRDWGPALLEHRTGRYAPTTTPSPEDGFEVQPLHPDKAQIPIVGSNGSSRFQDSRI
In words: Glycine uptake inhibition assay (mGlyT-1b). It counts as cell-based. The following applies: [3H]-glycine uptake, Flp-in-CHO cells transfected with mGlyT-1b cDNA, 20 min preincubation at 22° C.; read-out: IC50 (μM) at GlyT-1. The method, then: DMEM complete medium: Nutrient mixture F-12 (Gibco Life-technologies), fetal bovine serum (FBS) 5%, (Gibco life technologies), Penicillin/Streptomycin1% (Gibco life technologies), Hygromycin 0.6 mg/ml (Gibco life technologies), Glutamine 1 mM Gibco life technologies)
Uptake buffer (UB): 150 mM NaCl, 10 mM Hepes-Tris, pH 7.4, 1 mM CaCl2, 2.5 mM KCl, 2.5 mM MgSO4, 10 mM (+) D-glucose. Flp-in™-CHO (Invitrogen Cat n° R758-07)cells stably transfected with mGlyT1b cDNA.
Glycine Uptake Inhibition Assay (mGlyT-1b)
On day 1 mammalian cells, (Flp-in™-CHO), transfected with mGlyT-1b cDNA, were plated at the density of 40,000 cells/well in complete F-12 medium, without hygromycin in 96-well culture plates. On day 2, the medium was aspirated, and the cells were washed twice with uptake buffer (UB). The cells were then incubated for 20 min at 22° C. with either (i) no potential competitor, (ii) 10 mM non-radioactive glycine, (iii) a concentration of a potential inhibitor. A range of concentrations of the potential inhibitor was used to generate data for calculating the concentration of inhibitor resulting in 50% of the effect (e.g. IC50, the concentration of the competitor inhibiting glycine uptake of 50%). A solution was then immediately added containing [^3H]-glycine 60 nM (11-16 Ci/mmol) and 25 μM non-radioactive glycine. The plates were incubated with gentle shaking, and the reaction was stopped by aspiration of the mixture and washing (three times) with ice-cold UB. The cells were lysed with scintillation liquid, shaken 3 hours and the radioactivity in the cells was counted using a scintillation counter.

Molecules are shown by their SMILES.

With `CC(C)Oc1ccc(S(C)(=O)=O)cc1C(=O)N1CCC(Oc2ccc(C(F)(F)F)cc2)C1` (racemic) [Example 13, Rac-(2-Isopropoxy-5-methanesulfonyl-phenyl)-[3-(4-trifluoromethyl-phenoxy)-pyrrolidin-1-yl]-methanone], the IC50 – broadly, the point on the concentration scale where inhibition reaches its midpoint – came to 0.55 µM.

`CC(C)Oc1ccc(S(C)(=O)=O)cc1C(=O)N1CCC(Oc2ccc3ccccc3c2)C1` (racemic) [Example 18, Rac-(2-Isopropoxy-5-methanesulfonyl-phenyl)-[3-(naphthalen-2-yloxy)-pyrrolidin-1-yl]-methanone]: the IC50 was 0.87 µM. For the compound `CC(C)Oc1ccc(S(C)(=O)=O)cc1C(=O)N1CCC(Oc2ccc([N+](=O)[O-])cc2)CC1` [Example 4, (2-Isopropoxy-5-methanesulfonyl-phenyl)-[4-(4-nitro-phenoxy)-piperidin-1-yl]-methanone], the IC50 amounted to 1 µM. For the compound `CC(=O)c1ccc(OC2CCN(C(=O)c3cc(S(C)(=O)=O)ccc3OC(C)C)CC2)c(F)c1` [Example 5, 1-{3-Fluoro-4-[1-(2-isopropoxy-5-methanesulfonyl-benzoyl)-piperidin-4-yloxy]-phenyl}-ethanone], the IC50 was 0.93 µM. With `CC(C)Oc1ccc(S(C)(=O)=O)cc1C(=O)N1CCC(Oc2cc(C(F)(F)F)ccc2F)CC1` [Example 8, [4-(2-Fluoro-5-trifluoromethyl-phenoxy)-piperidin-1-yl]-(2-isopropoxy-5-methanesulfonyl-phenyl)-methanone], the IC50 stood at 0.63 µM. On to `CC(C)Oc1ccc(S(C)(=O)=O)cc1C(=O)N1CC(Oc2ccc(C(F)(F)F)cc2)C1` [Example 21, (2-Isopropoxy-5-methanesulfonyl-phenyl)-[3-(4-trifluoromethyl-phenoxy)-azetidin-1-yl]-methanone], for which the IC50 stood at 0.87 µM. Regarding `CC(C)Oc1ccc(S(C)(=O)=O)cc1C(=O)N1CC(Oc2cccc(C(F)(F)F)c2)C1` [Example 22, (2-Isopropoxy-5-methanesulfonyl-phenyl)-[3-(3-trifluoromethyl-phenoxy)-azetidin-1-yl]-methanone], the IC50 came to 0.7 µM.

Regarding `C[C@H](Oc1ccc(S(C)(=O)=O)cc1C(=O)N1CC(Oc2ccc(C(F)(F)F)cc2)C1)C(F)(F)F` [Example 23, [5-Methanesulfonyl-2-((S)-2,2,2-trifluoro-1-methyl-ethoxy)-phenyl]-[3-(4-trifluoromethyl-phenoxy)-azetidin-1-yl]-methanone], the IC50 was 0.39 µM.

`C[C@@H](Oc1ccc(S(C)(=O)=O)cc1C(=O)N1CC(Oc2ccc(C(F)(F)F)cc2)C1)C(F)(F)F` [Example 24, [5-Methanesulfonyl-2-((R)-2,2,2-trifluoro-1-methyl-ethoxy)-phenyl]-[3-(4-trifluoromethyl-phenoxy)-azetidin-1-yl]-methanone]: the half-maximal inhibitory concentration (IC50) turned out to be 0.84 µM. The same measure for `CS(=O)(=O)c1ccc(N2CCOCC2)c(C(=O)N2CCC(Oc3ccc(C(F)(F)F)cc3)C2)c1` (centres unmarked) [Example 25, (5-Methanesulfonyl-2-morpholin-4-yl-phenyl)-[3-(4-trifluoromethyl-phenoxy)-pyrrolidin-1-yl]-methanone]: 0.078 µM; for `CNS(=O)(=O)c1ccc(OC2CCCC2)c(C(=O)N2CCC(Oc3ccc(C(F)(F)F)cc3)C2)c1` (centres unmarked) [Example 26, 4-Cyclopentyloxy-N-methyl-3-[3-(4-trifluoromethyl-phenoxy)-pyrrolidine-1-carbonyl]-benzenesulfonamide]: 0.109 µM.
